In brackets after ≈: the same amount, converted by molar mass.
What was measured:
Mycobacterium avium [1] = conditions: isolate MAV1
Mycobacterium avium [2] = conditions: isolate MAV4
Mycobacterium avium [3] = conditions: isolate MAV3
Mycobacterium avium [4] = conditions: isolate MAV2
Mycobacterium avium [5] = conditions: 104 mc'2 3
Mycobacterium avium [6] = conditions: isolate MAV2; remark: listed apart in the source
Mycobacterium avium [7] = conditions: isolate MAV4; remark: listed apart in the source
Mycobacterium avium [8] = conditions: isolate MAV4; remark: listed apart in the source
[9] = system: Mycolicibacterium smegmatis; assay: Antimycobacterial activity against Mycobacterium smegmatis str. MC2 155 assessed as reduction in bacterial viability incubated for 3 days by MTT assay; assay type: organism-based; conditions: 72 h
Mycobacterium avium [10] = conditions: isolate MAV3; remark: listed apart in the source
Mycobacterium avium [11] = conditions: 104
Description: Inhibition of multidrug resistance efflux pump in Mycobacterium avium 104 assessed as potentiation of clarithromycin -induced antibacterial activity by measuring clarithromycin MIC at 1/4 MIC incubated for 3 days by MTT assay

Mycobacterium avium [12] = conditions: isolate MAV3; remark: listed apart in the source
Mycobacterium avium [13] = conditions: 104 mc'2 4
Mycobacterium avium [14] = conditions: 104 mc'2 4; remark: listed apart in the source
Mycobacterium avium [15] = conditions: isolate MAV2; remark: listed apart in the source
Mycobacterium avium [16] = conditions: isolate MAV1; remark: listed apart in the source
Mycobacterium avium [17] = conditions: isolate MAV3; remark: listed apart in the source
Mycobacterium avium [18] = conditions: isolate MAV4; remark: listed apart in the source
Mycobacterium avium [19] = conditions: 104 mc'2 3; remark: listed apart in the source
Mycobacterium avium [20] = conditions: isolate MAV3; remark: listed apart in the source
Mycobacterium avium [21] = conditions: isolate MAV2; remark: listed apart in the source
Mycobacterium avium [22] = conditions: isolate MAV2; remark: listed apart in the source
Description: Inhibition of multidrug resistance efflux pump in Mycobacterium avium isolate MAV2 assessed as potentiation of clarithromycin -induced antibacterial activity by measuring clarithromycin MIC at 1/4 MIC incubated for 3 days by MTT assay (Rvb = >1024 ug/ml)

Mycobacterium avium [23] = conditions: 104; remark: listed apart in the source
Mycobacterium avium [24] = conditions: isolate MAV3; remark: listed apart in the source
Mycobacterium avium [25] = conditions: isolate MAV1; remark: listed apart in the source
Mycobacterium avium [26] = conditions: isolate MAV2; remark: listed apart in the source
Mycobacterium avium [27] = conditions: isolate MAV1; remark: listed apart in the source
Description: Inhibition of multidrug resistance efflux pump in Mycobacterium avium isolate MAV1 assessed as potentiation of ciprofloxacin-induced antibacterial activity by measuring ciprofloxacin MIC at 1/2 MIC incubated for 3 days by MTT assay (Rvb = 2 ug/ml)

Mycobacterium avium [28] = conditions: isolate MAV3; remark: listed apart in the source
Mycobacterium avium [29] = conditions: 104 mc'2 4; remark: listed apart in the source
[30] = Safety index, ratio of CC50 for test compound to CC50 for chlorpromazine for cytotoxicity in human monocyte-derived macrophages; assay type: cell-based, Macrophage cell line
Mycobacterium avium [31] = conditions: 104; remark: listed apart in the source
Description: Inhibition of multidrug resistance efflux pump in Mycobacterium avium 104 assessed as potentiation of clarithromycin -induced antibacterial activity by measuring clarithromycin MIC at 1/2 MIC incubated for 3 days by MTT assay

[32] = system: Mycobacterium avium subsp. avium ATCC 25291
Mycobacterium avium [33] = conditions: isolate MAV4; remark: listed apart in the source
Description: Inhibition of multidrug resistance efflux pump in Mycobacterium avium isolate MAV4 assessed as potentiation of clarithromycin -induced antibacterial activity by measuring clarithromycin MIC at 1/4 MIC incubated for 3 days by MTT assay

Mycobacterium avium [34] = conditions: isolate MAV1; remark: listed apart in the source
Mycobacterium avium [35] = conditions: isolate MAV3; remark: listed apart in the source
Mycobacterium avium [36] = conditions: isolate MAV1; remark: listed apart in the source
Description: Inhibition of multidrug resistance efflux pump in Mycobacterium avium isolate MAV1 assessed as potentiation of ofloxacin-induced antibacterial activity by measuring ofloxacin MIC at 1/4 MIC incubated for 3 days by MTT assay (Rvb = 4 ug/ml)

Mycobacterium avium [37] = conditions: 104; remark: listed apart in the source
Mycobacterium avium [38] = conditions: isolate MAV2; remark: listed apart in the source
Mycobacterium avium [39] = conditions: 104; remark: listed apart in the source
Mycobacterium avium [40] = conditions: 104; remark: listed apart in the source
Mycobacterium avium [41] = conditions: 104 mc'2 4; remark: listed apart in the source
Mycobacterium avium [42] = conditions: isolate MAV3; remark: listed apart in the source
[43] = system: Mycobacterium avium subsp. avium ATCC 25291; remark: listed apart in the source
Description: Inhibition of multidrug resistance efflux pump in Mycobacterium avium ATCC 25291 assessed as potentiation of ethidium bromide-induced antibacterial activity by measuring ethidium bromide MIC at 1/4 MIC incubated for 3 days by MTT assay

[44] = Safety index, ratio of CC50 for test compound to CC50 for thioridazine for cytotoxicity in human monocyte-derived macrophages; assay type: cell-based, Macrophage cell line
Mycobacterium avium [45] = conditions: isolate MAV2; remark: listed apart in the source
Mycobacterium avium [46] = conditions: isolate MAV1; remark: listed apart in the source
Description: Inhibition of multidrug resistance efflux pump in Mycobacterium avium isolate MAV1 assessed as potentiation of ciprofloxacin-induced antibacterial activity by measuring ciprofloxacin MIC at 1/4 MIC incubated for 3 days by MTT assay

Mycobacterium avium [47] = conditions: in vivo, 72 h
Description: Antimycobacterial activity against Mycobacterium avium 104 mc'2 4 assessed as reduction in bacterial viability incubated for 3 days by MTT assay

Mycobacterium avium [48] = conditions: isolate MAV1; remark: listed apart in the source
Mycobacterium avium [49] = conditions: 104; remark: listed apart in the source
Mycobacterium avium [50] = conditions: isolate MAV4; remark: listed apart in the source
Description: Inhibition of multidrug resistance efflux pump in Mycobacterium avium isolate MAV4 assessed as potentiation of clarithromycin -induced antibacterial activity by measuring clarithromycin MIC at 1/2 MIC incubated for 3 days by MTT assay

[51] = system: Mycobacterium avium subsp. avium ATCC 25291; remark: listed apart in the source
Description: Inhibition of multidrug resistance efflux pump in Mycobacterium avium ATCC 25291 assessed as potentiation of clarithromycin -induced antibacterial activity by measuring clarithromycin MIC at 1/4 MIC incubated for 3 days by MTT assay

Mycobacterium avium [52] = conditions: 104 mc'2 3; remark: listed apart in the source
Mycobacterium avium [53] = conditions: isolate MAV2; remark: listed apart in the source
Description: Inhibition of multidrug resistance efflux pump in Mycobacterium avium isolate MAV2 assessed as potentiation of ofloxacin-induced antibacterial activity by measuring ofloxacin MIC at 1/2 MIC incubated for 3 days by MTT assay

[54] = system: Mycobacterium avium subsp. avium ATCC 25291; remark: listed apart in the source
Description: Inhibition of multidrug resistance efflux pump in Mycobacterium avium ATCC 25291 assessed as potentiation of clarithromycin -induced antibacterial activity by measuring clarithromycin MIC at 1/2 MIC incubated for 3 days by MTT assay

Mycobacterium avium [55] = assay: Antimycobacterial activity against Mycobacterium avium isolate MAV3 assessed as reduction in bacterial viability incubated for 3 days by MTT assay; assay type: organism-based; conditions: 72 h
Mycobacterium avium [56] = conditions: 104 mc'2 3; remark: listed apart in the source
Mycobacterium avium [57] = conditions: in vivo, 72 h; remark: listed apart in the source
Description: Antimycobacterial activity against Mycobacterium avium 104 mc'2 3 assessed as reduction in bacterial viability incubated for 3 days by MTT assay

Mycobacterium avium [58] = conditions: 104 mc'2 4; remark: listed apart in the source
Mycobacterium avium [59] = conditions: 104 mc'2 3; remark: listed apart in the source
Mycobacterium avium [60] = conditions: 104; remark: listed apart in the source
Mycobacterium avium [61] = conditions: isolate MAV3; remark: listed apart in the source
Mycobacterium avium [62] = assay: Antimycobacterial activity against Mycobacterium avium isolate MAV2 assessed as reduction in bacterial viability incubated for 3 days by MTT assay; assay type: organism-based; conditions: 72 h
[63] = system: Mycobacterium avium subsp. avium ATCC 25291; remark: listed apart in the source
Mycobacterium avium [64] = conditions: 104 mc'2 4; remark: listed apart in the source
[65] = system: Mycobacterium avium subsp. avium ATCC 25291; remark: listed apart in the source
Mycobacterium avium [66] = conditions: 104 mc'2 4; remark: listed apart in the source
Mycobacterium avium [67] = conditions: 104 mc'2 3; remark: listed apart in the source
Mycobacterium avium [68] = conditions: 104 mc'2 3; remark: listed apart in the source

CCCOc1ccc(-c2cn(CCN(CC)CC)c3ccccc3c2=O)cc1
MIC (Mycobacterium avium [1]): 32 µg/mL (≈ 84.5 µM)
MIC (Mycobacterium avium [2]): 16 µg/mL (≈ 42.3 µM)
MIC (Mycobacterium avium [3]): 16 µg/mL (≈ 42.3 µM)
MIC (Mycobacterium avium [4]): 2 µg/mL (≈ 5.28 µM)
MIC (Mycobacterium avium [5]): 512 µg/mL (≈ 1350 µM)
MIC (Mycobacterium avium [6]): > 512 µg/mL
MIC (Mycobacterium avium [7]): 6.25 µg/mL (≈ 16.5 µM)
MIC (Mycobacterium avium [8]): 64 µg/mL (≈ 169 µM)
MIC [9]: 256 µg/mL (≈ 676 µM)
MIC (Mycobacterium avium [10]): 4 µg/mL (≈ 10.6 µM)
MIC (Mycobacterium avium [11]): 1 µg/mL (≈ 2.64 µM)
MIC (Mycobacterium avium [12]): 128 µg/mL (≈ 338 µM)
MIC (Mycobacterium avium [13]): 4 µg/mL (≈ 10.6 µM)
MIC (Mycobacterium avium [14]): 512 µg/mL (≈ 1350 µM)
MIC (Mycobacterium avium [15]): 6.25 µg/mL (≈ 16.5 µM)
MIC (Mycobacterium avium [16]): 6.25 µg/mL (≈ 16.5 µM)
MIC (Mycobacterium avium [17]): 256 µg/mL (≈ 676 µM)
MIC (Mycobacterium avium [18]): 8 µg/mL (≈ 21.1 µM)
MIC (Mycobacterium avium [19]): 512 µg/mL (≈ 1350 µM)
MIC (Mycobacterium avium [20]): 32 µg/mL (≈ 84.5 µM)
MIC (Mycobacterium avium [21]): 16 µg/mL (≈ 42.3 µM)
MIC (Mycobacterium avium [22]): 1020 µg/mL (≈ 2710 µM)
MIC (Mycobacterium avium [23]): 4 µg/mL (≈ 10.6 µM)
MIC (Mycobacterium avium [24]): 8 µg/mL (≈ 21.1 µM)
MIC (Mycobacterium avium [25]): 3.12 µg/mL (≈ 8.26 µM)
MIC (Mycobacterium avium [26]): 512 µg/mL (≈ 1350 µM)
MIC (Mycobacterium avium [27]): 2 µg/mL (≈ 5.28 µM)
MIC (Mycobacterium avium [28]): 4 µg/mL (≈ 10.6 µM)
MIC (Mycobacterium avium [29]): 3.12 µg/mL (≈ 8.26 µM)
selectivity ratio [30]: 2 to 4
MIC (Mycobacterium avium [31]): 0.5 µg/mL (≈ 1.32 µM)
MIC [32]: 64 µg/mL (≈ 169 µM)
MIC (Mycobacterium avium [33]): 8 µg/mL (≈ 21.1 µM)
MIC (Mycobacterium avium [34]): 0.5 µg/mL (≈ 1.32 µM)
MIC (Mycobacterium avium [35]): 12.5 µg/mL (≈ 33 µM)
MIC (Mycobacterium avium [36]): 4 µg/mL (≈ 10.6 µM)
MIC (Mycobacterium avium [37]): 2 µg/mL (≈ 5.28 µM)
MIC (Mycobacterium avium [38]): 0.5 µg/mL (≈ 1.32 µM)
MIC (Mycobacterium avium [39]): 16 µg/mL (≈ 42.3 µM)
MIC (Mycobacterium avium [40]): 1 µg/mL (≈ 2.64 µM)
MIC (Mycobacterium avium [41]): 256 µg/mL (≈ 676 µM)
MIC (Mycobacterium avium [42]): 32 µg/mL (≈ 84.5 µM)
MIC [43]: 25 µg/mL (≈ 66 µM)
selectivity ratio [44]: 4 to 6
MIC (Mycobacterium avium [45]): 6.25 µg/mL (≈ 16.5 µM)
MIC (Mycobacterium avium [46]): 2 µg/mL (≈ 5.28 µM)
MIC (Mycobacterium avium [47]): 256 µg/mL (≈ 676 µM)
MIC (Mycobacterium avium [48]): 32 µg/mL (≈ 84.5 µM)
MIC (Mycobacterium avium [49]): 4 µg/mL (≈ 10.6 µM)
MIC (Mycobacterium avium [50]): 1 µg/mL (≈ 2.64 µM)
MIC [51]: 8 µg/mL (≈ 21.1 µM)
MIC (Mycobacterium avium [52]): 8 µg/mL (≈ 21.1 µM)
MIC (Mycobacterium avium [53]): 1 µg/mL (≈ 2.64 µM)
MIC [54]: 8 µg/mL (≈ 21.1 µM)
MIC (Mycobacterium avium [55]): 128 µg/mL (≈ 338 µM)
MIC (Mycobacterium avium [56]): 6.25 µg/mL (≈ 16.5 µM)
MIC (Mycobacterium avium [57]): 256 µg/mL (≈ 676 µM)
MIC (Mycobacterium avium [58]): 256 µg/mL (≈ 676 µM)
MIC (Mycobacterium avium [59]): 8 µg/mL (≈ 21.1 µM)
MIC (Mycobacterium avium [60]): < 2 µg/mL
MIC (Mycobacterium avium [61]): 128 µg/mL (≈ 338 µM)
MIC (Mycobacterium avium [62]): 256 µg/mL (≈ 676 µM)
MIC [63]: 128 µg/mL (≈ 338 µM)
MIC (Mycobacterium avium [64]): 4 µg/mL (≈ 10.6 µM)
MIC [65]: 128 µg/mL (≈ 338 µM)
MIC (Mycobacterium avium [66]): 512 µg/mL (≈ 1350 µM)
MIC (Mycobacterium avium [67]): 256 µg/mL (≈ 676 µM)
MIC (Mycobacterium avium [68]): 128 µg/mL (≈ 338 µM)

— ChEMBL document CHEMBL4130462, “Natural isoflavone biochanin A as a template for the design of new and potent 3-phenylquinolone efflux inhibitors against Mycobacterium avium” (Eur J Med Chem, 2017)
